# Measured values as given in ChEMBL document CHEMBL4800724 (2021).
# Calls of active or inactive are those of the source. The rule behind the calls is not given here.
# Legend:
# [1] = target: T1, Sigma non-opioid intracellular receptor 1 (Homo sapiens, UniProt Q99720); test: GPCRScan assay: inhibition of Sigma 1; design: radioligand conc. used [nm] 4.0 – 5.0, parental cells HEKT
# [2] = target: Mitogen-activated protein kinase 14 (Homo sapiens, UniProt Q16539); test: NanoBRET (SGC Frankfurt) (MAPK14)
# [3] = target: Ubiquitin carboxyl-terminal hydrolase isozyme L1 (Homo sapiens) (UniProt P09936); test: UCHL1 activity based protein profiling assay (ABPP)
# [4] = target: 5-hydroxytryptamine receptor 1A (Homo sapiens) (UniProt P08908); details: Compound concentration 10.0 uM
# [5] = target: 5-hydroxytryptamine receptor 1B (Homo sapiens) (UniProt P28222); details: Compound concentration 10.0 uM
# [6] = target: 5-hydroxytryptamine receptor 1D (Homo sapiens) (UniProt P28221); details: Compound concentration 10.0 uM
# [7] = target: 5-hydroxytryptamine receptor 1E (Homo sapiens) (UniProt P28566); details: Compound concentration 10.0 uM
# [8] = target: 5-hydroxytryptamine receptor 2A (Homo sapiens) (UniProt P28223); details: Compound concentration 10.0 uM
# [9] = target: 5-hydroxytryptamine receptor 2B (Homo sapiens) (UniProt P41595); details: Compound concentration 10.0 uM
# [10] = target: 5-hydroxytryptamine receptor 2C (Homo sapiens) (UniProt P28335); details: Compound concentration 10.0 uM
# [11] = target: 5-hydroxytryptamine receptor 3A (Homo sapiens) (UniProt P46098); details: Compound concentration 10.0 uM
# [12] = target: 5-hydroxytryptamine receptor 5A (Homo sapiens) (UniProt P47898); details: Compound concentration 10.0 uM
# [13] = target: 5-hydroxytryptamine receptor 6 (Homo sapiens) (UniProt P50406); details: Compound concentration 10.0 uM
# [14] = target: 5-hydroxytryptamine receptor 7 (Homo sapiens) (UniProt P34969); details: Compound concentration 10.0 uM
# [15] = target: D(2) dopamine receptor (Homo sapiens) (UniProt P14416); details: Compound concentration 10.0 uM
# [16] = target: D(3) dopamine receptor (Homo sapiens) (UniProt P35462); details: Compound concentration 10.0 uM
# [17] = target: D(4) dopamine receptor (Homo sapiens) (UniProt P21917); details: Compound concentration 10.0 uM
# [18] = target: D(1B) dopamine receptor (Homo sapiens) (UniProt P21918); details: Compound concentration 10.0 uM
# [19] = target: Sodium-dependent serotonin transporter (Homo sapiens) (UniProt P31645); details: Compound concentration 10.0 uM
# [20] = target: Sodium-dependent noradrenaline transporter (Homo sapiens) (UniProt P23975); details: Compound concentration 10.0 uM
# [21] = target: T2, Sodium-dependent dopamine transporter (Homo sapiens, UniProt Q01959); details: Compound concentration 10.0 uM
# [22] = target: Mu-type opioid receptor (Homo sapiens) (UniProt P35372); details: Compound concentration 10.0 uM
# [23] = target: Delta-type opioid receptor (Homo sapiens) (UniProt P41143); details: Compound concentration 10.0 uM
# [24] = target: Kappa-type opioid receptor (Homo sapiens) (UniProt P41145); details: Compound concentration 10.0 uM
# [25] = target: T3, GABA-A receptor; anion channel (Rattus norvegicus) (UniProt O09028+P15431+P18506+P18508+P19969+P20236+P23574+P23576+P28471+P28473+P30191+P62813+P63079+P63138+Q91ZM7+Q9ES14); details: Compound concentration 10.0 uM
# [26] = target: Histamine H1 receptor (Homo sapiens) (UniProt P35367); details: Compound concentration 10.0 uM
# [27] = target: Histamine H2 receptor (Homo sapiens) (UniProt P25021); details: Compound concentration 10.0 uM
# [28] = target: Histamine H3 receptor (Homo sapiens) (UniProt Q9Y5N1); details: Compound concentration 10.0 uM
# [29] = target: Histamine H4 receptor (Homo sapiens) (UniProt Q9H3N8); details: Compound concentration 10.0 uM
# [30] = target: Alpha-1A adrenergic receptor (Homo sapiens) (UniProt P35348); details: Compound concentration 10.0 uM
# [31] = target: Alpha-2B adrenergic receptor (Homo sapiens) (UniProt P18089); details: Compound concentration 10.0 uM
# [32] = target: Alpha-2C adrenergic receptor (Homo sapiens) (UniProt P18825); details: Compound concentration 10.0 uM
# [33] = target: Beta-1 adrenergic receptor (Homo sapiens) (UniProt P08588); details: Compound concentration 10.0 uM
# [34] = target: Beta-2 adrenergic receptor (Homo sapiens) (UniProt P07550); details: Compound concentration 10.0 uM
# [35] = target: Muscarinic acetylcholine receptor M1 (Homo sapiens) (UniProt P11229); details: Compound concentration 10.0 uM
# [36] = target: Muscarinic acetylcholine receptor M2 (Homo sapiens) (UniProt P08172); details: Compound concentration 10.0 uM
# [37] = target: Muscarinic acetylcholine receptor M3 (Homo sapiens) (UniProt P20309); details: Compound concentration 10.0 uM
# [38] = target: Muscarinic acetylcholine receptor M4 (Homo sapiens) (UniProt P08173); details: Compound concentration 10.0 uM
# [39] = target: Beta-3 adrenergic receptor (Homo sapiens) (UniProt P13945); details: Compound concentration 10.0 uM
# [40] = target: T3, GABA-A receptor; anion channel (Rattus norvegicus); details: Compound concentration 10.0 uM; remark: listed apart in the source
# Rattus norvegicus = organism: Rattus norvegicus; details: Compound concentration 10.0 uM
# [41] = target: Alpha-1D adrenergic receptor (Homo sapiens) (UniProt P25100); details: Compound concentration 10.0 uM
# [42] = target: Sigma intracellular receptor 2 (Homo sapiens) (UniProt Q5BJF2); details: Compound concentration 10.0 uM
# [43] = target: T1, Sigma non-opioid intracellular receptor 1; details: Compound concentration 10.0 uM
# [44] = target: T2, Sodium-dependent dopamine transporter; test: GPCRScan assay: inhibition of DAT; design: radioligand conc. used [nm] 3.6 – 16.0, parental cells stable HEK
# [45] = target: Alpha-2A adrenergic receptor (Homo sapiens, UniProt P08913); test: GPCRScan assay: inhibition of Alpha2A; design: radioligand conc. used [nm] 1.0 – 3.0, parental cells stable MDCK
# [46] = target: Ubiquitin carboxyl-terminal hydrolase isozyme L1 (Homo sapiens, UniProt P09936); test: UCHL1 inhibition assay with Ub-Rho-morpholine as substrate
# [47] = target: D(1A) dopamine receptor (Homo sapiens) (UniProt P21728); details: Compound concentration 10.0 uM
# [48] = target: Alpha-1B adrenergic receptor (Homo sapiens) (UniProt P35368); details: Compound concentration 10.0 uM
# [49] = target: Alpha-2A adrenergic receptor (Homo sapiens) (UniProt P08913); details: Compound concentration 10.0 uM
# [50] = target: Muscarinic acetylcholine receptor M5 (Homo sapiens) (UniProt P08912); details: Compound concentration 10.0 uM
# T1 sequence (Q99720 whole entry): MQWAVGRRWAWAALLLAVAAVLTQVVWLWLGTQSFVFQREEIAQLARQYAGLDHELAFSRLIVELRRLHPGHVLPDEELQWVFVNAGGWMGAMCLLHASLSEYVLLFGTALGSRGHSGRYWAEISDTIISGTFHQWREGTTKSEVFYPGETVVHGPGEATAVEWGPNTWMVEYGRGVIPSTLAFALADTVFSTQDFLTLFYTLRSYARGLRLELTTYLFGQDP
# T2 sequence (Q01959 whole entry): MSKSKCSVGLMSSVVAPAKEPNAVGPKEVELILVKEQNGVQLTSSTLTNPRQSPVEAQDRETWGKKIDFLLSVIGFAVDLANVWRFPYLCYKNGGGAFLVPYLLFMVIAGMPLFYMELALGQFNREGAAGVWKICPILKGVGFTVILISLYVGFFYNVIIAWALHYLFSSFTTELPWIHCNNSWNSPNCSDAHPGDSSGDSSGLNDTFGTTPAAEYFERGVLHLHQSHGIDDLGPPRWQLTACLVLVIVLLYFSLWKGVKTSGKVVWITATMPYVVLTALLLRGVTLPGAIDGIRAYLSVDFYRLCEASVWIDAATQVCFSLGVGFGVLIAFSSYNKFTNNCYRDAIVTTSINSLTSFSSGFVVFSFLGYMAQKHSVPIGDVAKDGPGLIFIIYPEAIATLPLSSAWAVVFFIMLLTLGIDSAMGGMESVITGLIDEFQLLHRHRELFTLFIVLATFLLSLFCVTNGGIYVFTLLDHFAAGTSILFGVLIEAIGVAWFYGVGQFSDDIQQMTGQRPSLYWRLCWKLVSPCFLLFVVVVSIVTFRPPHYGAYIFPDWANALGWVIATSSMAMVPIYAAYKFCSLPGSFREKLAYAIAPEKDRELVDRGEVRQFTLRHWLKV
# Beta-2 adrenergic receptor (Homo sapiens), sequence (P07550 whole entry, looked up): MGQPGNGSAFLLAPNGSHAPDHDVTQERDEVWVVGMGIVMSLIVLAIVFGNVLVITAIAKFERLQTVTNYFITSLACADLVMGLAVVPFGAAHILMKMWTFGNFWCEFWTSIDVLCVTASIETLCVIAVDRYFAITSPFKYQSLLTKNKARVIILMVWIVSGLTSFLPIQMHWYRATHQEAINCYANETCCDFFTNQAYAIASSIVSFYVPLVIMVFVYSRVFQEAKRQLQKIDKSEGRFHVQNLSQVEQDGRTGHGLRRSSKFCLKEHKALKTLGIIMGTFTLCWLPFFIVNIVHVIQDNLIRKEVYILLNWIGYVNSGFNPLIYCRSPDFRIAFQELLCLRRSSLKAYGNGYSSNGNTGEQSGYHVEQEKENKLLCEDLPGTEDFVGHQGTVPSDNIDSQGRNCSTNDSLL
# 5-hydroxytryptamine receptor 2A (Homo sapiens), sequence (P28223 whole entry): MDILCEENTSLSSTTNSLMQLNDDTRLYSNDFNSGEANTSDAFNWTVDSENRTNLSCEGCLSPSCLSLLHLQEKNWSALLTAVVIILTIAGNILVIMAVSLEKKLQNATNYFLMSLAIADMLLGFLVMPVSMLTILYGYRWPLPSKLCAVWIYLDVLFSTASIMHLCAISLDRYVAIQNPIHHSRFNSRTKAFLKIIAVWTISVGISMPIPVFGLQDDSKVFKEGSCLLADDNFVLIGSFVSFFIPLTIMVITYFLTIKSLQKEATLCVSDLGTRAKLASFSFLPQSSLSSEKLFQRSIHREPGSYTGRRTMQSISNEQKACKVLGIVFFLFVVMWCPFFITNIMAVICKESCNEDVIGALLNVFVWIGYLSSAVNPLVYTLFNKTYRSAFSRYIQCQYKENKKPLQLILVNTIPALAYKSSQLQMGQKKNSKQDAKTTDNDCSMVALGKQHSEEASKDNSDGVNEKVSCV
# 5-hydroxytryptamine receptor 5A (Homo sapiens), sequence (P47898 whole entry): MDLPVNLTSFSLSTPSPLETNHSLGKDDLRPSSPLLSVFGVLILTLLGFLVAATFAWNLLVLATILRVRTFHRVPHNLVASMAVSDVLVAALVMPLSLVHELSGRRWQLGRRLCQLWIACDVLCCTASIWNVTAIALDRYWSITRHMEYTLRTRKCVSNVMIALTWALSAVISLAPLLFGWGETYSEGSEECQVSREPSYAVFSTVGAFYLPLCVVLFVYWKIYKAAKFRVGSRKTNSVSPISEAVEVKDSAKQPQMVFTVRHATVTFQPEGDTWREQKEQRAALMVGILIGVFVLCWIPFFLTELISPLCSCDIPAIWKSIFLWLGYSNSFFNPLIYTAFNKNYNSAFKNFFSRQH
# Sodium-dependent serotonin transporter (Homo sapiens), sequence (P31645 whole entry, looked up): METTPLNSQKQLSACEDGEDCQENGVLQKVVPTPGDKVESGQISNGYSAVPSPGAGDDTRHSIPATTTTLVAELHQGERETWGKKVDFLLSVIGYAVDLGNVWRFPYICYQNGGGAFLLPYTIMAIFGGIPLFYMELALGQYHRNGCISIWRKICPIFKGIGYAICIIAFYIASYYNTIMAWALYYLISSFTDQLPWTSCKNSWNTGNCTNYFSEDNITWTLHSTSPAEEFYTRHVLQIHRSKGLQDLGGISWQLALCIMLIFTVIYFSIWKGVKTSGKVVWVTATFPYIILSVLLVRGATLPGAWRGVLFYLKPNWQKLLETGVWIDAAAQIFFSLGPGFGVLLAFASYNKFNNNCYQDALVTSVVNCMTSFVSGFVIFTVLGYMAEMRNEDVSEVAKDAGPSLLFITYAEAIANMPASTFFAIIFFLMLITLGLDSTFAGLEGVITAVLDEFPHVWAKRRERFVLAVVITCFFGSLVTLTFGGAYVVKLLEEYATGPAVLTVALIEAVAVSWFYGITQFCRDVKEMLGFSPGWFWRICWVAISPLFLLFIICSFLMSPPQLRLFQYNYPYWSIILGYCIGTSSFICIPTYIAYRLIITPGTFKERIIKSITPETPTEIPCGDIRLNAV
# D(2) dopamine receptor (Homo sapiens), sequence (P14416 whole entry): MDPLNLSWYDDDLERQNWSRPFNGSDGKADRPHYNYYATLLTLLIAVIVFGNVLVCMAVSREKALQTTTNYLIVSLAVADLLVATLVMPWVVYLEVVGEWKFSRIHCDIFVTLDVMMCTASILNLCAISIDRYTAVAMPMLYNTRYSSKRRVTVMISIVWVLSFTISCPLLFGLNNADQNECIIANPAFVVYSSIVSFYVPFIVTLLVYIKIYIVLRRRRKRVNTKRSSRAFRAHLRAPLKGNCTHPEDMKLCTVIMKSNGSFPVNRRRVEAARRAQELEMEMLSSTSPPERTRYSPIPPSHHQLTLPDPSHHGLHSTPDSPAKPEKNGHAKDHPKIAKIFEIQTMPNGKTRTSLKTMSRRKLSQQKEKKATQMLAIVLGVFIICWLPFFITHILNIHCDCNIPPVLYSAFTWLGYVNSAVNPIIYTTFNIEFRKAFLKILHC
# 5-hydroxytryptamine receptor 2C (Homo sapiens), sequence (P28335 whole entry): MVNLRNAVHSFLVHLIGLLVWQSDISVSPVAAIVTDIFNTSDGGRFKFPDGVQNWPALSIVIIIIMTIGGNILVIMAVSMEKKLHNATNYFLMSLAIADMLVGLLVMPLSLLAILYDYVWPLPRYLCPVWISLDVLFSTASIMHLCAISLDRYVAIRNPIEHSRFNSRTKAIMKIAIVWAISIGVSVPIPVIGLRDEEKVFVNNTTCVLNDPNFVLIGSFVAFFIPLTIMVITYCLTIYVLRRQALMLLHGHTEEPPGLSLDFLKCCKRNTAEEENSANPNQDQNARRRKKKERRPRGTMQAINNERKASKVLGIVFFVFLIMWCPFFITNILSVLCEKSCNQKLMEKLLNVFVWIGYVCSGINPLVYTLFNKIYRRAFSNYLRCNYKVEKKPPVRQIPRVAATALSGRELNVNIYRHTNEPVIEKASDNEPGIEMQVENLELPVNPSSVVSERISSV
# 5-hydroxytryptamine receptor 6 (Homo sapiens), sequence (P50406 whole entry): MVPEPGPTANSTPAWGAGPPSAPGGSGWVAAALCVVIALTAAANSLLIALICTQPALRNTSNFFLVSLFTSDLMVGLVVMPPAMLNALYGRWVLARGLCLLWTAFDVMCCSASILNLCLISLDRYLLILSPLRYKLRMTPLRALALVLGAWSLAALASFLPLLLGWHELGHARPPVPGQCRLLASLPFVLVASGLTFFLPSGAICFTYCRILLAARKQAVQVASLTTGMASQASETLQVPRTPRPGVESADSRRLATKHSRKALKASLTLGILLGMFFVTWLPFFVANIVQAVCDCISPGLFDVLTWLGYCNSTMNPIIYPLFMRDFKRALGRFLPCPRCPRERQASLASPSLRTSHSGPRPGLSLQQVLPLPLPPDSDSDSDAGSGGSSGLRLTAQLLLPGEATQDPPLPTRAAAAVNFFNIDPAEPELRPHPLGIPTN
# 5-hydroxytryptamine receptor 3A (Homo sapiens), sequence (P46098 whole entry): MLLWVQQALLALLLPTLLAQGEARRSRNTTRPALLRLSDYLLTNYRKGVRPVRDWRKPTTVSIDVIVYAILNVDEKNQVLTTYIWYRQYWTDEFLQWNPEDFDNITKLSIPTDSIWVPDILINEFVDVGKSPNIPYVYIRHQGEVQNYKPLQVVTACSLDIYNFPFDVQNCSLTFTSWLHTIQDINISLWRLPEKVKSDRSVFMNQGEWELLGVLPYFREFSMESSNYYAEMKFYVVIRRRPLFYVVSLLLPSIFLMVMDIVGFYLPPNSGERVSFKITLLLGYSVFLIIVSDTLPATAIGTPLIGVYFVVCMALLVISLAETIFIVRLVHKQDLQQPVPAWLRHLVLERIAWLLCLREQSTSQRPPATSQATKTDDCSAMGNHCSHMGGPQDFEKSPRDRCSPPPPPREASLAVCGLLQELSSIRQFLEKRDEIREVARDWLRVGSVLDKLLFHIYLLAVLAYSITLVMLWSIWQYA
# 5-hydroxytryptamine receptor 1D (Homo sapiens), sequence (P28221 whole entry): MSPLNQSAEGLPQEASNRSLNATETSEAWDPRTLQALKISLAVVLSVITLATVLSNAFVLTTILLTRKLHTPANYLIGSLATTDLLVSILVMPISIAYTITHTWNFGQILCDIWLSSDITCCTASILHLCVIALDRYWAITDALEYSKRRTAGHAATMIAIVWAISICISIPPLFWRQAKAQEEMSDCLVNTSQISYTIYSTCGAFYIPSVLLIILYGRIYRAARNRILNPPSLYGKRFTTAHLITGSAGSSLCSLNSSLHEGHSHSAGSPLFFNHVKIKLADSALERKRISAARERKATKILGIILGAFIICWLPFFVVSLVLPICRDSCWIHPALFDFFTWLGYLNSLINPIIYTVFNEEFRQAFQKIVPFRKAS
smiles,measurement,setting,value
N#CN1CC[C@H](C(=O)Nc2nc3c(s2)CN(C(=O)CN=[N+]=[N-])CC3)C1 [8RK64],Ki,[1]; read-out: Ki,3.43 µM
same,Ki,[1]; read-out: pKi (converted),3.39 µM
same,IC50,[2],0.32 µM (active)
same,Full inhibition,[3],3 µM
same,inhibition,[4],7.61%
same,inhibition,[5],1.57%
same,inhibition,[6],-0.37%
same,inhibition,[7],2.35%
same,inhibition,[8],30%
same,inhibition,[9],5.22%
same,inhibition,[10],18.2%
same,inhibition,[11],2.31%
same,inhibition,[12],11.8%
same,inhibition,[13],9.94%
same,inhibition,[14],-0.16%
same,inhibition,[15],0.55%
same,inhibition,[16],-2.14%
same,inhibition,[17],4.26%
same,inhibition,[18],7.55%
same,inhibition,[19],2.49%
same,inhibition,[20],2.61%
same,inhibition,[21],-2.33%
same,inhibition,[22],12.6%
same,inhibition,[23],8.43%
same,inhibition,[24],0.19%
same,inhibition,[25],-1.06%
same,inhibition,[26],7.45%
same,inhibition,[27],0.58%
same,inhibition,[28],-5.98%
same,inhibition,[29],5.77%
same,inhibition,[30],11.2%
same,inhibition,[31],-1.02%
same,inhibition,[32],14.7%
same,inhibition,[33],-7.19%
same,inhibition,[34],-0.7%
same,inhibition,[35],7.58%
same,inhibition,[36],-0.45%
same,inhibition,[37],-1.04%
same,inhibition,[38],4.84%
same,inhibition,[39],-3.31%
same,inhibition,[40],-2.35%
same,inhibition,Rattus norvegicus,21.9%
same,inhibition,[41],12.2%
same,inhibition,[42],-1.19%
same,inhibition,[43],69%
N#CN1CC[C@@H](C(=O)Nc2nc3c(s2)CN(C(=O)CN=[N+]=[N-])CC3)C1 [JYQ88],Ki,[44],> 10 µM
same,pKi,[44],< 5
same,Ki,[45],> 10 µM
same,pKi,[45],< 5
same,IC50,[46],12.9 µM (not active)
same,inhibition,[4],12.1%
same,inhibition,[5],6.13%
same,inhibition,[6],20.9%
same,inhibition,[7],6.5%
same,inhibition,[8],3.66%
same,inhibition,[9],5.55%
same,inhibition,[10],6.22%
same,inhibition,[11],0.95%
same,inhibition,[12],9.64%
same,inhibition,[13],8.14%
same,inhibition,[14],-1.05%
same,inhibition,[47],8.27%
same,inhibition,[15],4.82%
same,inhibition,[17],5.53%
same,inhibition,[19],7.66%
same,inhibition,[20],3.51%
same,inhibition,[21],83%
same,inhibition,[22],18.7%
same,inhibition,[23],4.07%
same,inhibition,[24],13.3%
same,inhibition,[25],34.2%
same,inhibition,[26],0.43%
same,inhibition,[27],3.43%
same,inhibition,[28],-2.11%
same,inhibition,[30],3.73%
same,inhibition,[48],-7.5%
same,inhibition,[49],50.7%
same,inhibition,[31],6.46%
same,inhibition,[32],4.21%
same,inhibition,[33],3.17%
same,inhibition,[34],-8.12%
same,inhibition,[35],24.4%
same,inhibition,[37],-2.15%
same,inhibition,[38],-1.43%
same,inhibition,[50],2.94%
same,inhibition,[40],28.7%
same,inhibition,Rattus norvegicus,5.64%
same,inhibition,[41],0.34%
same,inhibition,[43],6.56%
